Assay: Inhibitor concentration required to block 50% of the specific [3H]PAF binding, obtained as natural product.

| IC50 [nM] | SMILES |
| --- | --- |
| 500 | C=CCC1=CC2(OCC)C(=CC1=O)O[C@H](c1ccc(OC)c(OC)c1)[C@H]2C (some centres not stated) |
| 70 | CCCC1=C[C@@]2(OC)C(=CC1=O)O[C@H](c1ccc(OC)c(OC)c1)[C@H]2C |
